Laboratory results from patent US4157392A, “Pharmacologically active substituted 1,2,4-triazines” (Diamond Shamrock Corporation, priority 1978, dated 1979).
Like-named read-outs stand apart in the source and are kept apart here.

Tests used:
[1] = system: central nervous system activity in mice; experiment: Neuropharmacological Profile; format: in vivo, mouse (white male Carworth Farm Strain CF-1)
Method: The central nervous system activity of certain of the preferred compounds in accordance with the present invention were determined using the following neuropharmacological profile assay procedures.
White male mice of the Carworth Farm Strain (CF-1) weighing 18-22 grams were used in these determinations. […] Intraperitoneal injections were administered in logarithmic progression and sequentially. The dose levels employed routinely are 10, 30, 100, and 300 mg/kg, using four male mice at each dose level. Since this test was conducted in a sequential manner, the first dose administered was at 300 mg/kg. The mice were injected at this dose level and observed for gross changes produced by the drug, such as behavioral, neurological, autonomic, and toxic effects.
The animals were observed continuously for one hour and if no signs of pharmacological or toxicological activity were present at the end of the first hour, they were intermittently checked for activity every fifteen minutes thereafter for two consecutive hours. […] Subsequent dose levels below 300 mg/kg were not administered in this case. Alternatively, if demonstrable pharmacological changes occurred within the first three hours after administration of the drug at 300 mg/kg, the subsequent doses were administered and the animals observed for changes in overt behavior. The observation period begins immediately following the injection and the animals are then continuously observed for three hours and intermittently checked thereafter for forty-eight hours. The animals were observed and signs and symptoms of pharmacological activity were recorded continuously until no further symptoms developed and until the symptoms that had appeared were no longer present. […] It was very important that the animals were free to move about for evaluation of spacial orientation, alertness, and spontaneous motor activity. The animals were systematically observed and manipulated to measure the onset, peak effect, duration and character of drug action.
The major characteristics observed relative to central nervous system activity for the compounds indicated are summarized in the following Table IV.

[2] = system: phenylquinone writhing in mice; experiment: Phenylquinone Writhing Assay (analgesia); format: in vivo, mouse (Carworth CF1 male mice); conditions: Mus musculus, po, read-out: Phenylquinone Writhing Assay (% Control), percent analgesia; for responders at 100 mg/kg: 100 mg/kg oral; for responders at 30 mg/kg: 30 mg/kg oral; for responders at 50 mg/kg: 50 mg/kg oral; for responders at 25 mg/kg: 25 mg/kg oral
Method: The phenylquinone writhing test was employed to evaluate analgesic activity according to the following procedure:
Phenylquinone (phenyl-p-benzoquinone, No. 7104, Eastman Organic Chemicals) is made up as a 0.02% aqueous solution in 5% ethyl alcohol. Phenylquinone solutions are made up fresh twice daily. Standard reference agents and the test compounds are dissolved or suspended in a 0.25% methylcellulose solution. A control group consisting of ten mice (Carworth CF1 male mice) are administered the 0.02% phenylquinone solution at a dose of 0.25 ml/mouse. The mice are housed individually and observed closely for ten minutes for exhibition of writhing. The onset of writhing occurs within three minutes and 100% of the mice must writhe within ten minutes. Test compounds are administered orally to groups of ten mice. The volume given is 0.01 ml/gram of body weight. Activity can be studied at 15, 30, 60, and 120 minutes after oral administration. After the designated time interval of a dose group has elapsed, the mice are challenged with phenylquinone intraperitoneally. Complete blocking of the writhing syndrom for the ten minute observation period in any one mouse is considered a positive analgesic response for that mouse. Conversely, if any mouse writhes definitely once it is considered not to be protected. The number of mice not writhing in group multiplied by ten equals percent analgesia for that dose at that time interval.

[3] = system: carrageenin-induced edema in the hind paw of a rat; experiment: Carrageenin Assay (carrageenin-induced edema, hind paw); format: in vivo, rat (male, Long Evans strain); conditions: Rattus norvegicus, 1 h before carrageenin, edema at 3 h, compared to phenylbutazone control values, read-out: % Reduction of Edema; for inhibition in vivo at 200 mg/kg: 200 mg/kg oral
Method: The procedure employed is a modification of the method of Winter et al, Proc. Soc. Exptl. Biol. Med. 111:544 (1962). The device used for measurement of the paw volume is an adaptation of the water displacement procedure described by Adamkiewicz et al, Can. J. Biochem. Physiol. 33:332 (1955). Test compounds were administered orally, one hour prior to the intraplantar injection of 0.05 ml. of sterile 1.0 percent solution of carrageenin into the left hind paw of male rats (Long Evans strain) weighing between about 130-200 grams. At peak swelling time (3 hours) the volume of edema was calculated by differential paw volumes.
Table I sets forth the results obtained (indicated as percent reduction of edema compared to phenylbutazone control values) at the indicated dosages for each of the identified compounds.

[4] = 300,100,30 mg/kg intraperitoneal

SMILES	responders at 100 mg/kg ([2]; 0.5 h, 30 Min.) [%]	inhibition in vivo at 200 mg/kg [3] [%]	responders at 100 mg/kg ([2]; 0.25 h, 15 Min.) [%]	responders at 100 mg/kg ([2]; 1 h, 60 Min) [%]	further results
C=CCOc1nnc(C)c(C)n1 [Example 11, 3-allyloxy-5,6-dimethyl-1,2,4-triazine]	30	63			CNS Activity ([1]; 300,100 mg/kg intraperitoneal): Hypnotic
CSc1nncc(-c2cccc(C(F)(F)F)c2)n1 [Example 19, 3-methylthio-5-(3'-trifluoromethylphenyl)-1,2,4-triazine]		51			CNS Activity ([1]; 300,100,30,10,3 mg/kg intraperitoneal): Sedative; responders at 30 mg/kg ([2]; 0.5 h, 30 Min.): 20%
OCCNc1nncc(-c2ccccc2)n1 [Example 28, 3-B-hydroxyethyl amino-5-phenyl-1,2,4-triazine]	10	43	30	10	
COc1nncc(-c2cccc3ccccc23)n1 [Example 29, 3-methoxy-5-(1'-naphthyl)-1,2,4-triazine]		22	10		responders at 30 mg/kg ([2]; 0.25 h, 15 Min.): 10%; responders at 50 mg/kg ([2]; 0.5 h, 30 Min.): 10%
CCCOc1nncc(-c2ccccc2)n1 [Example 31, 3-n-propoxy-5-phenyl-1,2,4-triazine]		51	10		
COc1cc(-c2cnnc(SC)n2)ccc1O [Example 32, 3-methylthio-5-(3'-methoxy-4'-hydroxyphenyl)-1,2,4-triazine]	10	5	30	10	
CSc1nncc(C23CC4CC(CC(C4)C2)C3)n1 [Example 34, 3-methylthio-5-(1'-adamantyl)-1,2,4-triazine]	10	17	30		
CSc1nncc(-c2cc3ccccc3o2)n1 [Example 35, 3-methylthio-5-(2'-benzofuryl)-1,2,4-triazine]	10	2	10	10	
CSc1nncc(C2CC2)n1 [Example 37, 3-methylthio-5-cyclopropyl-1,2,4-triazine]		86	20		
COc1nncc(-c2ccc(OC)c(OC)c2)n1 [Example 38, 3-methoxy-5-(3',4'-dimethoxyphenyl)-1,2,4-triazine]	20	52		10	
CSc1nncc(-c2c(C)cc(C)cc2C)n1 [Example 39, 3-methylthio-5-(2',4',6'-trimethylphenyl)-1,2,4-triazine]		7	10	10	
CSc1nncc(-c2ccc(N3CCOCC3)cc2)n1 [Example 40, 3-methylthio-5-(4'-morpholinophenyl)-1,2,4-triazine]	10	19	30		
CSc1nncc(-c2ccc(F)cc2F)n1 [Example 42, 3-methylthio-5-(2',4'-difluorophenyl)-1,2,4-triazine]	10		20		inhibition in vivo at 150 mg/kg ([3]; 150 mg/kg oral): 10%
CSc1nncc(-c2ccc(Br)cc2)n1 [Example 43, 3-methylthio-5-(4'-bromophenyl)-1,2,4-triazine]	10	20	10	10	
COc1ccc(-c2cnnc(SC)n2)cc1 [Example 44, 3-methylthio-5-(4'-methoxyphenyl)-1,2,4-triazine]	10	18	10	20	
COc1nnc(-c2ccccc2)c(-c2ccccc2)n1 [Example 48, 3-methoxy-5,6-diphenyl-1,2,4-triazine]		17			CNS Activity [1, 4]: Muscle Relaxant
COc1ccc(-c2nnc(N(C)CCO)nc2-c2ccc(OC)cc2)cc1 [Example 50, 3-(N-methyl-N-(B-hydroxyethyl)amino)-5,6-bis-(4'-methoxyphenyl)-1,2,4-triazine]	100	67	70	80	responders at 25 mg/kg ([2]; 0.25 h, 15 Min.): 30%; responders at 50 mg/kg ([2]; 0.25 h, 15 Min.): 60%; responders at 25 mg/kg ([2]; 0.5 h, 30 Min.): 40%; responders at 50 mg/kg ([2]; 0.5 h, 30 Min.): 50%; responders at 25 mg/kg ([2]; 1 h, 60 Min): 20%; responders at 50 mg/kg ([2]; 1 h, 60 Min): 40%
C[C@@H]1CC[C@H](C)N1c1nnc(-c2ccccc2)c(-c2ccccc2)n1 [Example 52, 3-(cis-2',5'-dimethylpyrrolidyl)-5,6-diphenyl-1,2,4-triazine]	30	22		10	
c1ccc(Oc2nnc(-c3ccccc3)c(-c3ccccc3)n2)cc1 [Example 53, 3-phenoxy-5,6-diphenyl-1,2,4-triazine]		7	20	10	
CSc1nnc(-c2ccc(Cl)cc2)c(-c2ccc(Cl)cc2)n1 [Example 54, 3-methylthio-5,6-bis(4'-chlorophenyl)-1,2,4-triazine]		7	10		
CN(CCO)c1nnc(-c2ccccc2)c(-c2ccccc2)n1 [Example 55, 3-(N-methyl-N-B-hydroxyethylamino)-5,6-diphenyl-1,2,4-triazine]		23	20		
CCCCOc1nccnn1 [Example 65, 3-n-butoxy-1,2,4-triazine]					CNS Activity [1, 4]: Antidepressant; responders at 50 mg/kg ([2]; 0.5 h, 30 Min.): 10%
CN(CCO)c1nncc(-c2ccccc2)n1 [Example 73]			10		CNS Activity ([1]; 300,100 mg/kg intraperitoneal): Hypnotic
CCC(=O)NNc1nncc(-c2ccc(Cl)cc2)n1 [Example 108, 3-propionylhydrazino-5-(4'-chlorophenyl)-1,2,4-triazine]					responders at 25 mg/kg ([2]; 0.25 h, 15 Min.): 30%; responders at 25 mg/kg ([2]; 0.5 h, 30 Min.): 50%; responders at 25 mg/kg ([2]; 1 h, 60 Min): 50%; inhibition in vivo at 100 mg/kg ([3]; 100 mg/kg oral): 40%
